Legend:
[1] = system: CCl4 hepatotoxicity in mice; experiment: Protective action against CCl4 (0.1%) hepatotoxicity in mice (Table 3); assay type: in vivo, mice (male Kunming strain); conditions: for SGPT (± SE): two doses, 9 per group, control 3016 ± 23; for SGPT (± SE) / Liver lipids: CCl4 0.1% 10 ml/kg i.p.; for Liver lipids: control 21.0 ± 4.2; for decreasing SGPT level and liver injuries (in words): CCl4 0.1% ip
Method: (§1) Male Kunming strain mice weighing 18-22 grams were used throughout the experiments. The compound to be tested was suspended in 5% Tween 80 and given orally by gavage. The vehicle of 5% Tween 80 solution was administered to control mice via the same route. In the vitro experiments,the compound was dissolved in dimethylformamide and added directly into the incubation mixture.
(§2) The parameters adopted for hepatotoxicicity included serum tranaminase (SGPT), liver triglycerides, and pathological examination of liver tissues. The liver lesions were scored mainly by the extent of inflammation and necrosis and graded from 0 to 4.
In another experiment, mice were first administered two doses of the compound and injected ip 10 ml/kg of 0.1% CCl4 in vegetable oil 24 h after administration of the second dose.

[2] = system: thioacetamide hepatotoxicity in mice; experiment: Protective action against thioacetamide hepatotoxicity in mice (Table 4); assay type: in vivo, mice (male Kunming strain)
Method: as §1, §2
In the experiment of thioacetamide hepatotoxicity, mice were treated according to the procedure of CCl4 intoxication as described above except that thioacetamide 50 mg/kg was injected instead of CCl4.

[3] = system: serum and liver transaminase (GPT); experiment: Effect on serum and liver transaminase (GPT) levels of normal mice (Table 5); assay type: in vivo, mice (male Kunming strain)
Method: as §1
Groups of mice were administered the vehicle or 250 mg/kg of the compound once daily for 7 consecutive days. The serum and liver GPT were determined 24 h after the last dose administration.

[4] = system: diene conjugates in liver microsomes of CCl4-intoxicated mice; experiment: CCl4-initiated lipid peroxidation, diene conjugates in vivo (Table 6); parameters: species or system mice (male Kunming strain); conditions: 250 mg/kg, 1 ml/kg CCl4
Method: as §1
(§3) CCl4 hepatotoxicity has been considered to be due to formation of free radicals which initiate lipid peroxidation or covalent binding to macromolecules of microsomes. Thus, the structures and function of cell membranes were destroyed. The effect of the compound on CCl4 induced lipid peroxidation (malonic dialdehyde, MDA, in vitro, and diene conjugates in vivo) and ^14 CCl4 covalent binding to lipids and proteins of microsomes were investigated.
Diene conjugates: Mice were given two doses of 250 mg/kg of the compound on the first day and followed by the same dose on the second day and then received an injection of 1 ml/kg of CCl4. The mice were killed 1 h after the CCl4 injection. The diene conjugates in liver microsomes were extracted with chloroform-methanol (2:1) and washed with methanol 0.9% NaCl solution. The absorption of diene conjugates in the chloroform layer at 243 nm was measured with spectrophotometer.

microsomal proteins = experiment: 14CCl4 covalent binding to microsomal proteins; assay type: biochemical, mice; conditions: 1 mM, NADPH-reduced liver microsomes
Method: as §1, §3
The condition of incubation was similar to that of MDA production. The compound was pre-incubated with NADPH-reduced liver microsomes for 10 minutes. The final concentration of the compound was 1 mM. ^14 CCl4 0.5 uci was added to the incubation mixture. Incubation was continued for another 60 minutes. The radio-activity of ^14 CCl4 in microsomal lipids and proteins was separated by the method of extraction of diene conjugates and counted by liquid scintillation.

aminopyrine demethylase = experiment: Hepatic aminopyrine demethylase in mice (Table 7); assay type: in vivo, mice (male Kunming strain)
Method: as §1
The liver microsomal cytochrome P-450 plays a key role in the detoxification of xenobiotics. […] Mice were administered 250 mg/kg of the compound once daily for 3 days. The control mice received the vehicle. The mice were killed after fasting overnight. Liver microsomes were prepared and microsomal monooxygenases were determined.

[5] = system: pentobarbital sleeping time in mice; experiment: Pentobarbital sleeping time in mice (Table 8); assay type: in vivo, mice (male Kunming strain); conditions: for Sleeping time (X ± SE): 250 mg/kg, 10 per group, control 71 ± 7, P <0.01, in min (unit assumed)
Method: as §1
In another experiment, mice were given a dose of 250 mg/kg of the compound. Sodium pentobarbital (50 mg/kg) was injected ip 1 and 24 h after administration of the compound. The sleeping time was estimated by recording the interval of disappearance and recovery of righting reflex. […] It means that the prolongation of pentobarbital sleeping time by the compound was due to the inhibition of liver drug metabolism enzyme.

CN(CCc1ccccc1)C(=O)C(O)C(O)c1ccccc1 (stereo not drawn) [Compound, 2,3-dihydroxy-N-methyl-3-phenyl-N-(2-phenylethyl)-propionic acid amide]
SGPT (± SE) ([1]; 125 mg/kg): 2727 ± 162 unit %
Liver lipids ([1]; 125 mg/kg): 21.0 ± 3.8 mg/g
decreasing SGPT level and liver injuries (in words) ([1]; 125 mg/kg): without effect
SGPT (± SE) ([1]; 250 mg/kg, footnote <0.01): 2270 ± 221 unit %
Liver lipids ([1]; 250 mg/kg): 22.5 ± 5.5 mg/g
decreasing SGPT level and liver injuries (in words) ([1]; 250 mg/kg): effective for decreasing SGPT level and liver injuries
Liver lesions, Inflammation (Grade) ([1]; 250 mg/kg, graded from 0 to 4, control 1.70): 0.16 Grade
Liver lesions, Necrosis (Grade) ([1]; 250 mg/kg, graded from 0 to 4, control 2.33): 0.72 Grade
SGPT (± SE) ([2]; 250 mg/kg × 2, thioacetamide 50 mg/kg ip, 9 per group, control 1696 ± 231, footnote <0.05): 1045 ± 166 unit %
Liver lipids (± SE) ([2]; 250 mg/kg × 2, thioacetamide 50 mg/kg ip, control 61 ± 11.7): 59 ± 11.3 mg/g
protection against thioacetamide hepatotoxicity (conclusion, in words) ([2]; mouse, in vivo): protected against thioacetamide hepatotoxicity
effect on SGPT levels, thioacetamide hepatotoxicity (in words) ([2]; thioacetamide 50 mg/kg): markedly lowered the SGPT levels
SGPT level of normal mice (in words) ([3]; 250 mg/kg once daily, 7 days): slightly higher than that of the control but the difference was not significant
SGPT (± SE) ([3]; normal mice, 250 mg/kg/day × 7, 8 per group, control 217 ± 17.5): 272 ± 27.8 unit %
LGPT (liver GPT, ± SE) ([3]; normal mice, 250 mg/kg/day × 7, 8 per group, control 260 ± 11.6): 234 ± 13.6 unit %
diene conjugates production in livers (in words) ([4]; two doses first day and same dose second day): would not inhibit diene conjugates production
Diene conjugates ([4]; in vivo, number of determinations 8, control 55.8 ± 2.3): 54.8 ± 3.3 OD × 100/g liver
covalent binding of 14CCl4 to microsomal proteins (in words) (microsomal proteins): not inhibited
Aminopyrine demethylase (aminopyrine demethylase; 250 mg/kg day × 3, control 81 ± 63, P <0.01): 107 ± 5.8 nmol HCHO/min/mg protein
aminopyrine demethylase activity (in words) (aminopyrine demethylase; 250 mg/kg once daily, 3 days): increased significantly
Sleeping time (X ± SE) ([5]; 1 h before pentobarbital 50 mg/kg ip): 132 ± 13
Sleeping time (X ± SE) ([5]; 24 h before pentobarbital 50 mg/kg ip): 45 ± 6
pentobarbital sleeping time (in words) ([5]; compound 1 h prior to pentobarbital): prolonged markedly
pentobarbital sleeping time (in words) ([5]; compound 24 h before pentobarbital): shortened significantly

Source: patent publication US4826873A, “2,3-dihydroxy-3-phenyl-N-(2-phenyl-ethyl)-propionic acid amides derivatives thereof” (priority 1986, dated 1989)
